Assay results taken from patent US11046647B2, “Activators of the unfolded protein response” (The Board of Trustees of the University of Illinois, priority 2018, dated 2021).

Columns and labels:
TYS-Luc cells = test: Cell death with or without thapsigargin, TYS-Luc; assay type: cell-based, human; settings: 1 hour
Description: TYS-Luc cells were maintained in DMSO vehicle (Veh) or BHPI, or (−)-105 with or without thapsigargin (THG) for the indicated times. Blocking the decline in ATP levels (FIG. 19) with THG inhibited (−)-105-induced cell death.

[1] = system: intracellular ATP levels in TYS-Luc cells; test: Intracellular ATP levels, TYS-Luc cells; assay type: cell-based, human; settings: 10,000 nM thapsigargin, 1 hr
Method: TYS-Luc cells were maintained DMSO vehicle (Veh), 1,000 nM BHPI, 1,000 nM (−)-105 with and without 10,000 nM thapsigargin (THG) for the indicated times. ATP levels were determines using a kit and relative ATP levels were from a standard curve. […] (n=3±SEM).

For `C/C=C(/C)C(=O)O[C@H]1C(C)=C2[C@H]([C@@H]1OC(=O)CCCCCCC)[C@@](C)(OC(C)=O)C[C@H](OC(=O)CCC)[C@@]1(O)[C@H]2OC(=O)[C@@]1(C)O` [THG, thapsigargin, reference compound], the “inhibition of (−)-105-induced cell death” value (TYS-Luc cells) was “strong inhibition” and the “block of (−)-105-induced decline in intracellular ATP levels” value [1] was “completely blocked”.
